“Also recorded” adds a separate entry of the source.
What was measured:
Format in all cases: cell-based
[1] = system: lung cancer cell line (H1975); test: MTS assay, cancer cell proliferation inhibition, lung cancer cell line; details: H1975, 500 μM oligopeptide, 72 hours, OD 490 nm, vs untreated control (FIG. 1)
Description: (§1) To measure the cancer cell proliferation inhibitory effect of the oligopeptides synthesized in Example 1, an MTS (3-(4,5-dimethylthiazol-2-y)-5-(3-carboxymethoxyphenyl)-2-(4-sulfophenyl)-2H-tetrazolium, inner salt) assay for cancer cells was performed. Specifically, each of a lung cancer cell line (H1975), a breast cancer cell line (MDA-MB-231) and a blood cancer cell line (Daudi), which were cultured in 96-well microplates, was treated with 500 μM of the oligopeptides synthesized in Example 1, and incubated in a 37° C. incubator for 72 hours. Each cell culture was treated with an MTS reagent and incubated in a 37° C. incubator for 30 minutes or more, and absorbance (OD) was measured at 490 nm.

[2] = system: breast cancer cell line (MDA-MB-231); test: MTS assay, cancer cell proliferation inhibition, breast cancer cell line; details: MDA-MB-231, 500 μM oligopeptide, 72 hours, OD 490 nm, vs untreated control (FIG. 2)
Description: as §1

[3] = system: blood cancer cell line (Daudi); test: MTS assay, cancer cell proliferation inhibition, blood cancer cell line; details: 500 μM oligopeptide, 72 hours, OD 490 nm, vs untreated control (FIG. 3)
Description: as §1

Sequence | cancer cell proliferation inhibitory activity [1] | cancer cell proliferation inhibitory effect [2] | cancer cell proliferation inhibitory activity [3]
GMLVLTPTRE (pep #8) | excellent cancer cell proliferation inhibitory effects | better cancer cell proliferation inhibitory effect than an untreated control | better cancer cell proliferation inhibitory activity than an untreated control; also recorded: excellent cancer cell proliferation inhibitory activity
AECSKYSYKG (pep #5) |  | better cancer cell proliferation inhibitory effect than an untreated control; also recorded: excellent cancer cell proliferation inhibitory effects | better cancer cell proliferation inhibitory activity than an untreated control; also recorded: excellent cancer cell proliferation inhibitory activity
TSATWPDTVR (pep #2) |  | better cancer cell proliferation inhibitory effect than an untreated control | better cancer cell proliferation inhibitory activity than an untreated control
QTVMTSATWP (pep #6) | excellent cancer cell proliferation inhibitory effects |  | better cancer cell proliferation inhibitory activity than an untreated control
CSKYSYKGLK (pep #4) |  | better cancer cell proliferation inhibitory effect than an untreated control | better cancer cell proliferation inhibitory activity than an untreated control
ATWPDTVRQL (pep #1) |  |  | better cancer cell proliferation inhibitory activity than an untreated control
SICIYGGRNR (pep #7) | excellent cancer cell proliferation inhibitory effects | better cancer cell proliferation inhibitory effect than an untreated control; also recorded: excellent cancer cell proliferation inhibitory effects | better cancer cell proliferation inhibitory activity than an untreated control
WPDTVRQLAL (pep #3) |  | better cancer cell proliferation inhibitory effect than an untreated control; also recorded: excellent cancer cell proliferation inhibitory effects | better cancer cell proliferation inhibitory activity than an untreated control
SREQRNGPGM (pep #9) | excellent cancer cell proliferation inhibitory effects |  | 
